Assay results taken from article PMC10753699, “Synthesis of Some New 1,3,4-Oxadiazole Derivatives and Evaluation of Their Anticancer Activity” (ACS Omega, 2023).

Molecular target: T1, MMP-9 enzyme (Homo sapiens, UniProt P14780)
T1 construct: purchased EnzoLife Sciences Inc. (Farmingdale, New York, NY, USA)
Assay: MMP-9 colorimetric inhibition assay
Assay type: biochemical
Excerpt: As described in our previous study,[36] the method was applied in exactly the same manner. EnzoLife Sciences Inc. provided MMP-9 colorimetric kits (Farmingdale, New York, NY, USA). The MMP Colorimetric Drug Discovery Kits are a comprehensive test technique that uses a thiopeptide (Ac-PLG-[2-mercapto-4-methyl-pentanoyl]-LG-OC2H5) as a chromogenic substrate to screen MMP inhibitors. Using a microplate reader (BioTek, PowerWave, Gen5 software, Winooski, VT, USA) at room temperature, the UV absorbance was measured at 412 nm. NNGH was employed as an inhibitor of control.

T1 sequence (P14780 107-444 limits assumed): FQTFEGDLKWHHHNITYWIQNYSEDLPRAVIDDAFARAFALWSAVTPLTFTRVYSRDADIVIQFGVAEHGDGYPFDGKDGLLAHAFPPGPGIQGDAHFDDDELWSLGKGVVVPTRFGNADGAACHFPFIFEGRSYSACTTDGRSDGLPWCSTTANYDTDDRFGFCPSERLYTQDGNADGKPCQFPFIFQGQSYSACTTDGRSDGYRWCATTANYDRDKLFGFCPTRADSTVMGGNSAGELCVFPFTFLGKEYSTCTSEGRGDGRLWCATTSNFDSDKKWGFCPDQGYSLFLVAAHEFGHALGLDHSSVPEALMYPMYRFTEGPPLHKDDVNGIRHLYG

## COc1ccc(S(=O)(=O)N(CC(=O)NO)CC(C)C)cc1 [NNGH, N-isobutyl-N-(4-methoxyphenylsulfonyl)glycyl hydroxamic, reference compound]
  IC50: 7.4 ± 0.2 nM
